{
  "source": "patent US20250319139A1",
  "about": "“METHODS FOR TREATING NEUROINFLAMMATION” (University of Virginia Patent Foundation, priority 2021, published 2025)",
  "assay_type_in_all_cases": "in vivo, mouse",
  "key": {"[1]": {"system": "IL-17", "assay": "ELISA of IL-17 in the brain", "procedure": "Mice were weighed and anesthetized with isoflurane at 24 h after MCAO. Blood samples were obtained from the right heart after thoracotomy. Blood was centrifuged (13,000 g, 4° C.) after it had been placed at 4° C. for 2 h for the collection of serum. After the collection of blood, mice were perfused with 4° C. saline for brain tissue harvesting. The cerebral cortex (anteroposterior: −1.5 to 2.5 mm, mediolateral: 1.0 to 3.0 mm) was dissected out. All dissection procedures were performed on ice.\nIL-10, IL-17, IL-1β and IL-6 in the serum and brain were detected by using ELISA kits (catalog number: M1000B, M1700, MLB00C and D6050, R&D SYSTEM, Inc., Minneapolis, MN, USA) as we described before. The brain tissues were homogenized on ice in the RIPA buffer containing 25 mM Tris-HCl with pH 7.6, 150 mM NaCl, 1% sodium deoxycholate and 0.1% SDS (catalog number: 89901, Thermo Scientific, Rockford, IL, USA) and a protease inhibitor cocktail containing 10 mg/ml aproteinin, 5 mg/ml peptastin, 5 mg/ml leupetin and 1 mM phenylmethane sulfonylfluoride (catalog number: SRE0055, Sigma-Aldrich, St. Louis, MO, USA). The supernatant was collected for ELISA detection after being centrifuged for 20 min (13,000 g, 4° C.) and the protein concentration was determined by the BCA method. Cytokines in the serum and supernatant of brain were detected according to the manufacturer's instruction. The amount of IL-10, IL-17, IL-1β and IL-6 in each sample in the brain was normalized by its protein content."}, "[2]": {"system": "dendritic branches and spines of hippocampal neurons", "assay": "Golgi staining, dendritic arborization", "settings": "young adult mice with exercise and surgery; intraperitoneal valeric acid", "procedure": "Golgi staining was performed using FD Rapid GolgiStain™ Kit. Nineteen days after surgery, brains of 6 mice in each group were immersed in the impregnation solution (solutions A and B: 1:1) for 2 weeks and then transferred to solution C for 3 days. Coronal brain sections at a thickness of 100 μm and around-2.7 mm from bregma were cut on a vibratome (Microslicer® 10110, Ted Pella, Inc. California, USA). As described before, more than 10 well individualized neurons in the dentate gyrus (DG) region of the hippocampus were randomly selected from each mouse, and sequential optical multiple-layers scanning images were taken at an interval 2.0 μm along the z-axis (3DHISTECH, Pannoramic MIDI, Hungary) with 20× objective. The multiple-layer scanning files were superposed to become one clear scanning file that can be viewed with Caseviewer (3DHISTECH, Hungary) on a computer. The total branch number and dendritic length were measured by Fiji software (Fiji-win64, NIH, USA). The complexity of total dendritic trees (intersections) was estimated using Sholl analysis. For spine density measurement, 5 neurons were selected from each animal. […] The spine numbers in 40 μm segments were counted by an observer who was blind to group assignment. The results were expressed as the number of spines/10 μm segments. […]"}, "[3]": {"system": "C3ar", "assay": "C3ar immunofluorescent staining of hippocampus", "settings": "young adult mice with exercise and surgery; intraperitoneal valeric acid", "procedure": "The immunofluorescent labeling and quantification of the staining were performed as described before. Briefly, brain was fixed in 4% paraformaldehyde at 4° C. for 24 h and then incubated in 30% sucrose over night at 4° C. before being frozen in optimal cutting temperature compound. Coronal 20-μm thick sections were cut sequentially from Bregma -3 to -6 mm by using a cryostat and mounted on microscope slides. After being washed in Tris-buffered saline (TBS), sections were blocked in 10% donkey serum plus 1% bovine serum albumin (BSA) in TBS containing 0. 3% triton-X 100 for 2 h at room temperature and then incubated at 4° C. overnight with the following primary antibodies: rabbit monoclonal anti-C3 antibody (1:50), goat monoclonal anti-GFAP antibody (1:200), rat monoclonal anti-[…] antibody (1:50) and rabbit monoclonal anti-Iba-1 antibody (1:200). Sections were rinsed in TBS with 0.1% Triton-x 100. […] The quantification was performed as described previously. […] The number of pixels per image with intensity above a predetermined threshold level was considered as a positively stained area for an interested marker and quantified using the Image-pro plus 6.0 (Media Cybernetics, Inc., Rockville, MD, USA) and presented as percentage of positive area in the total area. […] All quantitative analyses were performed in a blinded manner."}, "[4]": {"system": "C57BL/6J mice", "assay": "Barnes maze test, young adult mice"}},
  "data": [
    {"smiles": "CCCCC(=O)O", "note": "[valeric acid]", "values": [
      {"measurement": "IL-17 in the brain (cerebral cortex)", "setting": "[1]; mice without MCAO, valeric sodium 100 mg/kg intraperitoneal for 7 days", "value": "increase"},
      {"measurement": "IL-17 in the brain", "setting": "[1]; young mice with brain ischemia (120-min MCAO), intraperitoneal valeric acid", "value": "did not increase"},
      {"measurement": "exercise attenuation of the decrease of intersections among dendritic branches", "setting": "[2]", "value": "this attenuation was blocked"},
      {"measurement": "exercise attenuation of the decrease of spine density in the hippocampus", "setting": "[2]", "value": "this attenuation was blocked"},
      {"measurement": "exercise-induced reduction of C3ar in the hippocampus", "setting": "[3]", "value": "this reduction was blocked"},
      {"measurement": "performance in the Barnes maze", "setting": "[4]; 13-week old mice without surgery, intracerebroventricular 4 mg/kg once daily for 4 days (1/50 dose of intraperitoneal injection)", "value": "did not affect the performance"},
      {"measurement": "time to identify target box in the Barnes maze test", "setting": "[4]; young adult mice with exercise and surgery, valeric acid 200 mg/kg intraperitoneal once a week vs normal saline", "value": "reversed the effects of exercise"}
    ]}
  ]
}
